The text below walks through data of patent US8623338B2, “Methionine-derived peptidomimetics and their use in the protection of mitochondria of cutaneous cells” (Exsymol S.A.M., priority 2010, dated 2014).

The conditions of data set [1]: literature value (Mitragotri 2003); cited from earlier work.
The subject of data set [2] is O2°− superoxide anion present in mitochondria of V79 cells. Kind of data set: Mitochondrial oxidative stress in V79 cells under H2O2 stress (MitoSOX Red, flux cytometry). Type of data set: cell-based, hamster. Conditions: for % of positive cells to MitoSOX: V79 cells. The text has this:
(§1) Test 3: Evidence of the Protective Effect of the N-Acety-(DL)-Methionyl-4-(Methylthio)Propylamine Compound on the Mitochondrial Oxidative Stress and on the Mitochondrial Biogenesis
(§2) Principles: measures of the mitochondrial intracellular oxidative stress and detection of the mitochondrial biogenesis were achieved by flux cytometry with the following fluorophore markers: • the “MitoSOX™ Red” red fluorescent probe below-designed “MitoSOX” (detection to λ=580 nm; supplier: Invitrogen) allows to specifically detect the O2°^− superoxide anion present in mitochondria (due to its strong affinity for mitochondria), • the “MitoTracker® Green FM” green fluorescent probe below-designed “Mitogreen” (detection to λ=516 nm; supplier: Invitrogen) allows to quantify the mitochondrial mass (or related number of mitochondria per cell).
(§3) Experimentally, tests were achieved on a fibroblastic line of hamster “V79”, maintained by lining out in a “EMEM” complete culture medium (with 10% foetal calf serum) in humid atmosphere at 37° C. and 5% CO2. The V79 cells are seeded then incubated 24 hours in […] at the rate of 2.5·10^5 cells per well in 3 ml of the same culture medium, then exposed 1h30 to a stress with the addition of a medium containing hydrogen peroxide H2O2 (15 ppm).
(§4) After trypsination, the cells are incubated at 37° C. for 15 minutes in 1 ml of “EMEM” complete culture medium and containing the above-mentioned markers “MitoSOX” (at the final concentration of 5 μM) and “Mitogreen” (at the final concentration of 200 nM), for respective detection: • of the mitochondrial oxidative stress (expressed in % of positive cells) • of the mitochondrial mass per cell (expressed in % of MFI (“Mean Fluorescence Intensity”) in relation to the control).
(§5) The results, expressed as the average values obtained from four independent experiments, are presented in the hereafter tables 3a and 3b, in comparison with those obtained for the N-acetyl-cysteine chosen as a reference protective agent at the concentration of 5 mM.

The subject of data set [3] is mitochondrial mass of V79 cells. Kind of data set: Mitochondrial mass / biogenesis in V79 cells under H2O2 stress (MitoTracker Green FM, flux cytometry). Conditions: Mitogreen. Type of data set: cell-based, hamster.
Text: as §1, §2, §3, §4, §5

A short description of data set [4]: Whitening test of pyrogallol red by peroxynitrite ions. Particulars: inhibition of pyrogallol red (50 μM) oxidation by ONOO− (25 μM), pH 7.0, 5 minutes. An excerpt: Test 6: Evidence of the Antioxidant Effect of the […])Propylamine Compound on Peroxynitrite Ions The method so-called “whitening test of the pyrogallol red (PR)”, described by Nath V. B. and coll.

Data set [5] is described as follows: Hydroxyl radical scavenging speed constant (deoxyribose / thiobarbituric acid method). Particulars: pH 7.4, 37° C., one hour. The text has this:
Test 5: Evidence of the Antioxidant Effect of the N-Acety-(DL)-Methionyl-4-(Methylthio)Propylamine and N-Propionyl-(DL)-Methionyl-4-(Methylthio)Propylamine on the Hydroxyl Radical
The method, described by Rehman A. and coll. (British J. Pharmacol. (1997), vol. 122, pp. 1702-1706), is used for the determination of the scavenging speed constant of the hydroxyl radical [Ks (OH°)], the peptidomimetic according to the invention being compared to two reference antioxidants, mannitol and ascorbic acid (vitamin C).
Experimentally, the tested substance is dissolved in a buffered medium of pH 7.4 to which is added a OH° generating system (ascorbate/iron/EDTA) in presence of deoxyribose. After one hour of incubation at 37° C., the reaction is stopped with the help of trichloroacetic acid. After colorimetric visualization with thiobarbituric acid, the absorbance is measured at 532 nm for different concentrations, then the relative Ks (OH°) is calculated for each of the substances.

Data set [6] deals with cell line of fibroblasts called V79. Nature of the data set: Restoration of cellular ATP levels in V79 fibroblasts exposed to H2O2 stress (luminometry, ATPlite 1step). The format is cell-based, hamster. Particulars: V79 cells. The procedure:
Test 1: Evidence of the Ability of the Methionine-derived Peptidomimetics to Restore the Cellular ATP Levels on Cells Exposed to a Stress (H2O2):
The experimental study has been carried out on a cell line of fibroblasts called V79, and seeded in a 96 well plate at the rate of 5000 cells per well in 100 μl of culture medium (containing 10% foetal calf serum). This one is then replaced in each of the well by 100 μl of medium containing some peptidomimetics according to the invention, at the concentration of 7.5 mM or 10 mM. After 2 hours of incubation, the medium is removed from all wells. Then the cells are submitted to a stress with the addition of a medium containing 50 μl of hydrogen peroxide H2O2 (4 ppm). After 8 additional hours of incubation, the ATP average concentration is measured by luminometry in presence of luciferin (“ATPlite lstep” kit) and through a standard curve prepared from highly purified ATP.
The results, expressed as the average values obtained from three independent experiments, are presented in the hereafter table 1, in comparison with a control.
Background: Cellular ATP, detected with luciferase, serves as a proxy for viable cell number.

The nature of data set [7]: Percutaneous absorption on human skin explants (Frantz-type cells, OECD guideline 428). Type of data set: in vitro ADME. Conditions: 1% solution, 24 hours contact. An excerpt:
Test 2: Percutaneous Absorption Study of the Methionine-derived Peptidomimetics on Human Skin Explants: The values of permeability coefficient (Kp) were obtained from a previously frozen abdominal […] human skin, in accordance with protocol described in the OECD guidelines n° 428 on cutaneous absorption studies. Experimentally, the skin explants were placed on Frantz-type cells in passive diffusion, piloted by the “MicroettePlus Hanson Research” system. The tested products are applied in a non-occlusive way. After that skin was laid on the cells, 500 μl of peptidomimetic according to the invention (1% solution) were placed in each of the cells and for a total contact time of 24 hours. At the end of these ones, the remaining product is sampled and the skin surface rinsed for extraction and for measure of the absorbed quantity, then for the determination of the permeability coefficient expressed under logarithmic type (Log Kp).

For data set [8] the following is noted: reference antioxidants, literature footnotes; cited from earlier work.

Values joined by “and” are separate entries in the source; they are usually repeats but may differ in a detail not shown here. Equal values may be shown once. Read-outs that look alike come from different tables or passages of the source. Marks after values point to notes of the source that are not given here.

For the molecule `Cn1c(=O)c2c(ncn2C)n(C)c1=O` [caffeine], the Kp in data set [1] was 1 · 10^−4** cm · h^−1.

With `CC(=O)N[C@@H](CS)C(=O)O` [N-acetyl-cysteine, reference compound], the “% of positive cells to MitoSOX” value in data set [2] (5 ppm + H2O2 (15 ppm, 1h30)) was determined as 15.2%. Besides, the “MFI (% control)” value in data set [3] (5 ppm + H2O2 (15 ppm, 1h30)) came out at 74.4 % control.

A word on the IC50: it is the point on the concentration scale where inhibition reaches its midpoint. A higher IC50 goes with lower potency. Turning to `Cc1c(C)c2c(c(C)c1O)CCC(C)(C(=O)O)O2` (stereo not shown) [Trolox, carboxylic 2-(6-hydroxy-2,5,7,8-tetramethylchromane) acid, reference compound], the IC50 in data set [4] worked out at 83 µM.

Turning to `CSCCCNC(=O)C(CCSC)NC(C)=O` (stereo not drawn) [N-acetyl-(DL)-methionyl-4-(methylthio)propylamine], the “Ks(OH°)” value in data set [5] was 6.1 10^9 · M^−1 · s^−1. Further, the ATP in data set [6] (compound 7.5 mM + H2O2 (4 ppm), 8 h) came out at 483 nM; in data set [6] (compound 7.5 mM, no H2O2), 591 nM. Also, the “effect on intramitochondrial stress (MitoSOX and Mitogreen)” value in data set [2] (V79 cells + H2O2, in words, both tables 3a and 3b) is recorded as “ability to reduce the effect of intramitochondrial stress”. Also, the “% of positive cells to MitoSOX” value in data set [2] (7.5 mM + H2O2 (15 ppm, 1h30)) stood at 40.3%. The same molecule yielded an IC50 in data set [4] of 1010 µM. Besides, the “MFI (% control)” value in data set [3] (7.5 mM + H2O2 (15 ppm, 1h30)) turned out to be 123.5 % control; in data set [3] (10 mM + H2O2 (15 ppm, 1h30)), 127.5 % control. Moreover, the Kp in data set [7] amounted to 0.000109 cm/h.

Take `OC[C@@H](O)[C@@H](O)[C@H](O)[C@H](O)CO` [mannitol]: the “Ks(OH°)” value in data set [8] was 1.6 10^9 · M^−1 · s^−1 and 1.9 10^9 · M^−1 · s^−1.

`O=C1O[C@H]([C@@H](O)CO)C(O)=C1O` [ascorbic acid]: the “Ks(OH°)” value in data set [8] is 10.1** 10^9 · M^−1 · s^−1.

Consider `CCC(=O)NC(CCSC)C(=O)NCCCSC` (stereo not drawn) [N-propionyl-(DL)-methionyl-4-(methylthio)propylamine], for which, in data set [5], the “Ks(OH°)” value is given as 5.7 10^9 · M^−1 · s^−1. The ATP in data set [6] (compound 10 mM + H2O2 (4 ppm), 8 h) came to 449 nM; in data set [6] (compound 10 mM, no H2O2), 528 nM. The molecule also yielded a Kp in data set [7] of 9.7e-05 cm/h.
